In article PMC11818041, “Pilot-Scale Production of Sericin-Derived Oligopeptides (SDOs) from Yellow Silk Cocoons: Peptide Characterization and Specifications” (Foods, 2025):
Like-named read-outs stand apart in the source and are kept apart here. Marks after values point to notes of the source that are not given here. Residues, ends and D or L forms follow the SMILES beside them.

Columns and labels:
ACE = ACE (Homo sapiens, UniProt P12821); test: ACE inhibitory activity assay (FAPGG substrate); type: biochemical; conditions: for inhibition at 200 µM: read-out: Inhibition (%) ACE
DPP-IV = DPP-IV (Homo sapiens, UniProt P27487); test: DPP-IV inhibitory activity assay (GPN substrate); type: biochemical; conditions: for inhibition at 2500 µM / Inhibition (%) DPP-IV: synthetic peptide at 2.5 mM (final reaction concentration)
[1] = set-up: method as in BIOPEP-UWM database; conditions: fragments in brackets, activities listed jointly; ref BIOPEP-UWM database; cited from earlier work
[2] = Metal chelating activity (FeCl2/ferrozine); conditions: reference against which IC50 values were compared
Procedure: Following a 3 min dark incubation, 50 μL of 5 mM ferrozine was introduced and incubated for 20 min at ambient temperature in the absence of light. Absorbance was quantified at 562 nm. […] The chelating activity was determined using the following formula:Metal chelating activity (%) = [(Acontrol − Asample)/Acontrol] × 100

[3] = ABTS radical scavenging activity; conditions: standard against which IC50 values were compared
Procedure: The antioxidant activity was evaluated using a modified ABTS assay according to Laosam et al.. Then, ABTS stock solution was prepared by combining 7.0 mM ABTS with 2.6 mM potassium persulfate in 50 mM phosphate buffer (pH 7.4) and incubated in darkness for 12–16 h before use. Subsequently, the analysis was initiated by combining 20 μL of SDOs samples with 1980 μL of ABTS working solution (stock solution diluted with phosphate buffer to achieve an absorbance of 0.740 ± 0.020 at 734 nm). After 5 min of incubation in the dark, the absorbance was measured at 734 nm. […] With the formula below, the radical scavenging activity was calculated:Scavenging activity (%) = [(Acontrol − Asample)/Acontrol] × 100 where Acontrol and Asample represent the absorbance of control and sample, respectively.

[4] = synthetic peptide at 0.2 mM (final reaction concentration)
[5] = synthetic peptide, read-out: Inhibition (IC50 Value) ACE
[6] = synthetic peptide, read-out: Inhibition (IC50 Value) DPP-IV

DPP-IV, sequence (P27487 whole entry, species assumed, the tested form may be a part): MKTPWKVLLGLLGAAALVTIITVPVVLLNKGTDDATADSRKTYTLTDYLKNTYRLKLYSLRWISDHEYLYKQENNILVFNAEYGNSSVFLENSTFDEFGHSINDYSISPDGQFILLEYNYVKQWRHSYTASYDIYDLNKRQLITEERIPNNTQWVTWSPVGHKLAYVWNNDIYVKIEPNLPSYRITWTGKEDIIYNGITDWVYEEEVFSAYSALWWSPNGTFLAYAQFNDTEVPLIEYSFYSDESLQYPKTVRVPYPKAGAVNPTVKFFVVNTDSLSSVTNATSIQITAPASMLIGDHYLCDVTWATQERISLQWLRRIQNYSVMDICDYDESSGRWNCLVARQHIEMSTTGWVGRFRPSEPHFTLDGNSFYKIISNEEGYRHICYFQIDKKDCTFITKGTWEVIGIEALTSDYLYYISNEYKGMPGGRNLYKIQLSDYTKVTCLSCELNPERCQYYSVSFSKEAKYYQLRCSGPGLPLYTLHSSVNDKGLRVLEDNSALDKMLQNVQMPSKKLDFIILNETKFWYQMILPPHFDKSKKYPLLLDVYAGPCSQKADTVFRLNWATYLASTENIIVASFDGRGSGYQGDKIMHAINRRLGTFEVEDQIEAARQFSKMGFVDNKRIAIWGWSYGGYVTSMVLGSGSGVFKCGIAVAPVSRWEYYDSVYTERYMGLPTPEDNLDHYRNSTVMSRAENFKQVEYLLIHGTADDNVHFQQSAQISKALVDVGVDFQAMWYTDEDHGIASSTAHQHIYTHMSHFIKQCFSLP
ACE, sequence (P12821 30-1306, species assumed): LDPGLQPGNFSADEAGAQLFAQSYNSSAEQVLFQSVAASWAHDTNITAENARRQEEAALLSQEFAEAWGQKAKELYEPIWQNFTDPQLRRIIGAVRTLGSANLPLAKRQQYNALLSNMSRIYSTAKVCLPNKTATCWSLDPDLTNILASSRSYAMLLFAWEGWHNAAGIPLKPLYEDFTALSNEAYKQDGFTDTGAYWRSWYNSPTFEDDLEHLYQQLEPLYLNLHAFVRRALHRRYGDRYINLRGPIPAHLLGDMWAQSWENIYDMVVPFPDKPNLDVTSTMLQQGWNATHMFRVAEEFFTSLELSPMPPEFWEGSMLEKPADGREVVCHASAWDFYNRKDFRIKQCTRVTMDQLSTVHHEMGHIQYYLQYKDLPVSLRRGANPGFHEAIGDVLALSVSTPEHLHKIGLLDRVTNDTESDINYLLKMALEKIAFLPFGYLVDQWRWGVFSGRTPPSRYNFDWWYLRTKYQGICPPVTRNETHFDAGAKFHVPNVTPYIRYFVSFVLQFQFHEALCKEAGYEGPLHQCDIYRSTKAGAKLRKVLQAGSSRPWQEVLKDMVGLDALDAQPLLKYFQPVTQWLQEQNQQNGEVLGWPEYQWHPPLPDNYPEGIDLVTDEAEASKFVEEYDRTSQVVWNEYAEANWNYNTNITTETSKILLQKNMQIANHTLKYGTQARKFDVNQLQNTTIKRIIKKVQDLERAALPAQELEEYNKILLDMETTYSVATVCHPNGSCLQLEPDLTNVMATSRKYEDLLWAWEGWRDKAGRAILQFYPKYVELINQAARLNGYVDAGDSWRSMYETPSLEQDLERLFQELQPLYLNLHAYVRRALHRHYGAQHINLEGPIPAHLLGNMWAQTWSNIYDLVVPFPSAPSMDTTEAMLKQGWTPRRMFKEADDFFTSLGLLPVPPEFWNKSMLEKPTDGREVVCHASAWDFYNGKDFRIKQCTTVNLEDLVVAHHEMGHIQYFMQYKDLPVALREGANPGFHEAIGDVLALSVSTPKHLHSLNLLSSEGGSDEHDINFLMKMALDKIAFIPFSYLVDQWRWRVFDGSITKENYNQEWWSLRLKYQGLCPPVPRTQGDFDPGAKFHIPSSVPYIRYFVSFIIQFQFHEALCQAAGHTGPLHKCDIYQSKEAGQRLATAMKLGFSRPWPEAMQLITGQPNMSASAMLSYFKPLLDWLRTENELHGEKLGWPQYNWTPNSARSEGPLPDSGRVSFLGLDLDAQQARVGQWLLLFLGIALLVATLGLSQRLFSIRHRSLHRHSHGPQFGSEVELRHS

Row | Molecule | inhibition at 200 µM (ACE; [4]) [%] | inhibition at 2500 µM (DPP-IV) [%] | IC50 (DPP-IV; [6]) [µM] | Inhibition (%) DPP-IV (DPP-IV) | other results
1 | N[C@@H](CS)C(=O)N[C@@H](CCC(=O)O)C(=O)N[C@@H](Cc1ccccc1)C(=O)O [CEF] (H-Cys-Glu-Phe-OH) |  | 23.49 ± 0.14 |  |  | inhibition at 200 µM (ACE): 91.67 ± 0.73%; IC50 (ACE; [5]): 14.86 ± 0.1 µM
2 | YDY |  |  |  |  | Previous Reported Bioactivity of the Fragments (BIOPEP-UWM Database) [1]: (YDY) Antioxidative
3 | CSCC[C@H](NC(=O)[C@@H](N)Cc1c[nH]c2ccccc12)C(=O)N[C@@H](Cc1c[nH]cn1)C(=O)N[C@H](C(=O)N[C@@H](CCCNC(=N)N)C(=O)O)C(C)C [WMHVR] (H-WMHVR-OH) | 61.3 ± 0.88 | 33.1 ± 2.67 |  |  | IC50 (ACE; [5]): 118 ± 1.82 µM
4 | CC(C)C[C@H](NC(=O)[C@H](Cc1c[nH]c2ccccc12)NC(=O)[C@@H](NC(=O)[C@H](C)NC(=O)[C@@H](N)CC(C)C)[C@@H](C)O)C(=O)N1CCC[C@H]1C(=O)N[C@@H](CCCNC(=N)N)C(=O)O [LATWLPR] (H-LATWLPR-OH) | 36.1 ± 0.54 | 47.4 ± 1.73 | 2030 ± 150 |  | 
5 | QTA |  |  |  | 10.54 ± 1.90 ^o % | Inhibition (%) ACE (ACE; [4]): 16.48 ± 1.26 ^kl %
6 | AEF |  |  |  | 21.93 ± 0.35 ^n % | Inhibition (%) ACE (ACE; [4]): 6.04 ± 1.41 ^o %
7 | O=C(O)CN(CCN(CC(=O)O)CC(=O)O)CC(=O)O [EDTA] |  |  |  |  | Metal chelating activity, value of the reference [2]: 0.31 mg/mL
8 | QTALVELLQ [SDO peptide identified in fraction F1] |  |  |  | 22.20 ± 0.26 ^n % | 
9 | CC(C)C[C@H](NC(=O)[C@H](CC(=O)O)NC(=O)[C@@H]1CCCN1C(=O)[C@@H](N)Cc1ccc(O)cc1)C(=O)O [YPDL] (H-YPDL-OH) | 11.8 ± 2.26 | 48.3 ± 0.59 |  |  | IC50 (ACE): > 200 µM; IC50 (DPP-IV): 2390 ± 60 µM
10 | PYH |  |  |  | 29.97 ± 0.60 ^kl % | Inhibition (%) ACE (ACE; [4]): 15.69 ± 1.82 ^klm %
11 | EFL |  |  |  | 38.00 ± 1.38 ^fghi % | 
12 | CC(C)C[C@H](NC(=O)[C@H](CCC(N)=O)NC(=O)[C@H](CCC(N)=O)NC(=O)[C@H](CO)NC(=O)[C@H](CC(N)=O)NC(=O)[C@@H](N)CCC(=O)O)C(=O)N[C@@H](Cc1c[nH]cn1)C(=O)O [ENSQQLH] (H-ENSQQLH-OH) |  | 40.4 ± 4.54 | 2540 ± 100 |  | 
13 | MED |  |  |  | 38.87 ± 0.64 ^fghi % | 
14 | EFYE |  |  |  | 36.03 ± 0.51 ^ghij % | 
15 | CC(C)C[C@H](NC(=O)[C@H](CCC(=O)O)NC(=O)[C@H](Cc1ccc(O)cc1)NC(=O)[C@H](Cc1ccccc1)NC(=O)[C@@H](N)CCC(=O)O)C(=O)N[C@@H](C)C(=O)N[C@@H](CCCNC(=N)N)C(=O)O [EFYELAR] (H-EFYELAR-OH) | 34 ± 2.33 | 56.2 ± 1.55 | 1430 ± 30 |  | 
16 | Cc1c(C)c2c(c(C)c1O)CCC(C)(C(=O)O)O2 (stereo not shown) [Trolox] |  |  |  |  | ABTS radical scavenging, value of the standard [3]: 0.27 mg/mL

The next lines start with results.

Row | inhibition at 200 µM (ACE; [4]) [%] | inhibition at 2500 µM (DPP-IV) [%] | IC50 (DPP-IV; [6]) [µM] | Inhibition (%) DPP-IV (DPP-IV) | Molecule | other results
17 | 58.6 ± 2.61 | 42.88 ± 0.09 | 2940 ± 90 |  | CC(C)C[C@H](NC(=O)[C@H](CC(N)=O)NC(=O)CNC(=O)[C@@H](N)CC(C)C)C(=O)N[C@@H](Cc1ccc(O)cc1)C(=O)N[C@@H](CC(=O)O)C(=O)N[C@@H](Cc1ccc(O)cc1)C(=O)O [LGNLYDY] (H-LGNLYDY-OH) | IC50 (ACE; [5]): 162.1 ± 1.19 µM
18 | 89.2 ± 1.07 | 37 ± 0.95 |  |  | CC(C)C[C@H](NC(=O)[C@@H](N)Cc1ccc(O)cc1)C(=O)N[C@@H](Cc1ccc(O)cc1)C(=O)N[C@@H](CC(N)=O)C(=O)N[C@@H](C)C(=O)NCC(=O)N[C@@H](C)C(=O)N[C@@H](CCCNC(=N)N)C(=O)O (H-YLYNAGAR-OH) | IC50 (ACE; [5]): 77.28 ± 0.05 µM
19 |  |  |  | 36.70 ± 0.09 ^ghij % | NPR | Inhibition (%) ACE (ACE; [4]): 17.84 ± 0.68 ^k %
20 |  |  |  | 37.28 ± 0.69 ^ghij % | LFDLMEH [SDO peptide identified in fraction F8] | 
21 | 75.4 ± 1.53 | 41.1 ± 0.43 | 2820 ± 220 |  | N=C(N)NCCC[C@H](NC(=O)[C@@H]1CCCN1C(=O)[C@H](Cc1ccccc1)NC(=O)[C@H](CCC(=O)O)NC(=O)[C@H](CS)NC(=O)[C@@H](N)Cc1c[nH]c2ccccc12)C(=O)O [WCEFPR] (H-WCEFPR-OH) | IC50 (ACE; [5]): 21.2 ± 1.86 µM
22 | 3.89 ± 0.61 | 55.2 ± 0.69 | 1920 ± 60 |  | CC(C)C[C@H](NC(=O)[C@H](CO)NC(=O)[C@H](C)NC(=O)[C@H](CCC(=O)O)NC(=O)[C@H](C)NC(=O)[C@@H](N)C(C)C)C(=O)N1CCC[C@H]1C(=O)N[C@@H](CCCNC(=N)N)C(=O)O (H-VAEASLPR-OH) | 
23 |  |  |  | 33.85 ± 1.27 ^ijk % | LFD | 
24 |  |  |  | 37.20 ± 3.18 ^ghij % | MEH | Inhibition (%) ACE (ACE; [4]): 11.20 ± 0.04 ^n %
25 | 42.4 ± 2.64 | 45 ± 2.04 | 3170 ± 170 |  | CC(C)C[C@H](N)C(=O)N[C@@H](Cc1ccccc1)C(=O)N[C@@H](CC(=O)O)C(=O)N[C@@H](CCC(N)=O)C(=O)N1CCC[C@H]1C(=O)N[C@@H](Cc1ccc(O)cc1)C(=O)N[C@@H](Cc1ccccc1)C(=O)O [LFDQPYF] (H-LFDQPYF-OH) | 
26 | 63.4 ± 1.6 | 45.7 ± 1.86 | 2760 ± 30 |  | CC(C)C[C@H](NC(=O)[C@H](CC(=O)O)NC(=O)[C@H](Cc1ccccc1)NC(=O)[C@H](Cc1ccccc1)NC(=O)[C@@H](N)CCC(=O)O)C(=O)N1CCC[C@H]1C(=O)N[C@@H](Cc1ccc(O)cc1)C(=O)N[C@@H](Cc1c[nH]cn1)C(=O)O (H-EFFDLPYH-OH) | IC50 (ACE; [5]): 158 ± 2.2 µM
27 | 86 ± 1.66 | 56.9 ± 1.47 | 1350 ± 40 |  | CC(C)C[C@H](NC(=O)[C@H](CC(=O)O)NC(=O)[C@@H]1CCCN1C(=O)[C@@H](N)Cc1ccc(O)cc1)C(=O)N1CCC[C@H]1C(=O)N[C@@H](Cc1ccc(O)cc1)C(=O)N[C@@H](Cc1c[nH]cn1)C(=O)O [YPDLPYH] (H-YPDLPYH-OH) | IC50 (ACE; [5]): 18.1 ± 0.05 µM
28 |  |  |  | 37.45 ± 1.55 ^ghij % | WGWNPR | Inhibition (%) ACE (ACE; [4]): 23.69 ± 2.90 ^j %
29 |  |  |  | 35.84 ± 0.09 ^hij % | LGN | Inhibition (%) ACE (ACE; [4]): 44.11 ± 0.96 ^g %
30 |  |  |  | 37.22 ± 0.43 ^ghij % | DDK | 
31 |  |  |  | 30.57 ± 1.97 ^kl % | EFF | 
32 | 69.53 ± 0.03 | 55.54 ± 0.34 | 2380 ± 30 |  | CC(C)C[C@H](NC(=O)[C@H](CC(=O)O)NC(=O)[C@H](Cc1ccccc1)NC(=O)[C@@H](N)CC(N)=O)C(=O)N1CCC[C@H]1C(=O)N[C@@H](Cc1ccc(O)cc1)C(=O)N[C@@H](Cc1c[nH]cn1)C(=O)O [NFDLPYH] (H-NFDLPYH-OH) | IC50 (ACE; [5]): 77.2 ± 2.7 µM
33 | 58.3 ± 0.92 | 40.5 ± 1.74 | 3570 ± 130 |  | CC(C)C[C@H](NC(=O)[C@H](CC(C)C)NC(=O)[C@H](CC(C)C)NC(=O)[C@H](Cc1ccccc1)NC(=O)[C@@H](N)CCC(=O)O)C(=O)N[C@@H](Cc1c[nH]cn1)C(=O)N[C@@H](C)C(=O)O [EFLLLHA] (H-EFLLLHA-OH) | IC50 (ACE; [5]): 138.3 ± 1.04 µM
